What follows are molecules tested against T1, human H4 receptor (Homo sapiens, UniProt Q9H3N8) (assay: [3H]Histamine binding on membranes of CHO cells stably expressing human H4 receptor). Details: not given.
T1 construct: expressed in transfected cells
Experimental: CHO cells stably expressing human H4 receptor were grown until sub-confluence and centrifuged at 300 g 15 minutes at 4° C. Pellets were resuspended in buffer I Tris-HCl 50 mM, MgCl2 10 mM, NaCl 140 mM, pH=7.4 supplemented by a 1/50 dilution of a mix of protease inhibitors. The obtained suspension is stirred gently and submitted to a […] exerted through a syringe. The cell lysate is then centrifuged at 300 g 15 minutes at 4° C. in order to eliminate nucleus and cell scraps. The obtained supernatant was then centrifuged at 48000 g for 30 minutes at 4° C. The final pellet is resuspended in buffer I with a potter homogenizer. Aliquots were frozen in liquid nitrogen and stored until use at −80° C. Protein content is measured by the Bradford method.
Defreezed membranes were diluted at a final concentration of 20 μg/180 μL/well in a binding buffer containing 50 mM Tris/HCl, 0.5 mM EDTA, pH=7.4 and distributed in 96 well polystyrene microplate. [^3H] […] Non specific binding was estimated in the presence of 10 μM BP1.2404 (JNJ 7777120). The reaction was terminated by filtration through GF/B filters pre-soaked 2 hours at 4° C. in […]. Filters were rinsed 3 times with 250 μl of ice cold incubation binding buffer.
The filter-bound radioactivity was measured in a liquid scintillation counter Microbeta TRILUX® with 50 μl of scintillation fluid.
The hH4 binding investigated by use of [^3H]

Molecule	Ki or IC50 activity class [nM]
CN1CCC(OC(c2ccccc2)c2nc3ccccc3s2)C1 (centres unmarked) [Example 2, 2-[(1-methylpyrrolidin-3-yloxy)phenyl-methyl]benzothiazole]	< 1000
CN1CCC(OC(c2ccc(F)cc2)c2nc3ccccc3s2)CC1 (centres unmarked) [Example 3, 2-[(4-fluorophenyl)(1-methylpiperidin-4-yloxy)methyl]benzothiazole]	< 300
CN1CCC(OC(c2ccc(Cl)cc2)c2nc3ccccc3s2)CC1 (centres unmarked) [Example 4, 2-[(4-chlorophenyl)(1-methylpiperidin-4-yloxy)methyl]benzothiazole]	< 1000
CN1CCC(OC(c2cccc(F)c2)c2nc3ccccc3s2)CC1 (centres unmarked) [Example 5]	< 300
CN1CCC(OC(c2nc3ccccc3s2)c2ccccc2F)CC1 (centres unmarked) [Example 6, 2-[(2-fluorophenyl)(1-methylpiperidin-4-yloxy)methyl]benzothiazole]	< 300
Cc1ccc(C(OC2CCN(C)CC2)c2nc3ccccc3s2)cc1 (centres unmarked) [Example 7, 2-[(1-methylpiperidin-4-yloxy)-p-tolylmethyl]benzothiazole]	< 300
Cc1cccc(C(OC2CCN(C)CC2)c2nc3ccccc3s2)c1 (centres unmarked) [Example 8, 2-[(1-methylpiperidin-4-yloxy)(m-tolyl)methyl]benzothiazole]	< 30
CN1CCC(NC(c2ccccc2)c2nc3ccccc3s2)CC1 (centres unmarked) [Example 9, (benzothiazol-2-yl-phenylmethyl)(1-methylpiperidin-4-yl)amine]	< 30
CN1CCC(OC(c2ccc3c(c2)OCCO3)c2nc3ccccc3s2)CC1 (centres unmarked) [Example 10, 2-[(2,3-dihydrobenzo[1,4]dioxin-6-yl)(1-methylpiperidin-4-yloxy)methyl]benzothiazole]	< 30
COc1cccc(C(OC2CCN(C)CC2)c2nc3ccccc3s2)c1 (centres unmarked) [Example 11, 2-[(3-methoxyphenyl)(1-methylpiperidin-4-yloxy)methyl]benzothiazole]	< 30
CN1CCC(OC(c2nc3ccccc3s2)c2ccc(F)cc2F)CC1 (centres unmarked) [Example 12, 2-[(2,4-difluorophenyl)(1-methyl-piperidin-4-yloxy)methyl]-benzothiazole]	< 300
CN1CCC(OC(c2cccs2)c2nc3ccccc3s2)CC1 (centres unmarked) [Example 13, 2-[(1-methylpiperidin-4-yloxy)thiophen-2-ylmethyl]benzothiazole]	< 300
COc1ccc(C(OC2CCN(C)CC2)c2nc3ccccc3s2)cc1 (centres unmarked) [Example 14, 2-[(4-methoxyphenyl)(1-methylpiperidin-4-yloxy)methyl]benzothiazole]	< 1000
CN1CCC(OC(c2cc(F)cc(F)c2)c2nc3ccccc3s2)CC1 (centres unmarked) [Example 15, 2-[(3,5-difluorophenyl)(1-methyl-piperidin-4-yloxy)methyl]benzothiazole]	< 300
CN1CCC(OC(c2ccsc2)c2nc3ccccc3s2)CC1 (centres unmarked) [Example 16, 2-[(1-methylpiperidin-4-yloxy)thiophen-3-ylmethyl]benzothiazole]	< 30
CN1CCC(OC(c2ccc3ccccc3c2)c2nc3ccccc3s2)CC1 (centres unmarked) [Example 18, 2-[(1-methylpiperidin-4-yloxy)naphthalen-2-ylmethyl]benzothiazole]	< 300
Cc1ccc(C(OC2CCN(C)CC2)c2nc3ccccc3s2)s1 (centres unmarked) [Example 19, 2-[(1-methylpiperidin-4-yloxy)(5-methylthiophen-2-yl)methyl]benzothiazole]	< 300

Now from value to molecule:

Ki or IC50 activity class [nM]	Molecule
< 300	CCCOc1cccc(C(NC2CCN(C)CC2)c2nc3ccccc3s2)c1 (single isomer, unassigned) [Example 56, [benzothiazol-2-yl(3-propoxyphenyl)methyl](1-methylpiperidin-4-yl)amine]
< 30	CCCOc1cccc(C(NC2CCN(C)CC2)c2nc3ccccc3s2)c1 (single isomer, unassigned) [Example 57, [benzothiazol-2-yl(3-propoxyphenyl)methyl](1-methylpiperidin-4-yl)amine]
< 30	CN1CCC(OC(c2cccc(I)c2)c2nc3ccccc3s2)CC1 (single isomer, unassigned) [Example 117, 2-[(3-iodophenyl)(1-methylpiperidin-4-yloxy)methyl]benzothiazole]
< 30	CN1CCC(OC(c2cccc(SCCO)c2)c2nc3ccccc3s2)CC1 (single isomer, unassigned) [Example 229, 2-{3-[benzothiazol-2-yl(1-methylpiperidin-4-yloxy)methyl]phenylsulfanyl}ethanol]
< 1000	Cc1ccc(C(OC2CCN(C)CC2)c2nc3ccccc3[nH]2)cc1 (single isomer, unassigned) [Example 252, 2-[(1-methylpiperidin-4-yloxy)-p-tolylmethyl]-1H-benzimidazole]
< 30	Cc1ccc(C(OC2CCN(C)CC2)c2nc3ccccc3[nH]2)cc1 (single isomer, unassigned) [Example 253, 2-[(1-methylpiperidin-4-yloxy)-p-tolylmethyl]-1H-benzimidazole]
< 30	CN1CCC(OC(c2nc3ccccc3[nH]2)c2cc(OC(F)(F)F)ccc2F)CC1 (single isomer, unassigned) [Example 435, 2-[(2-fluoro-5-trifluoromethoxyphenyl)(1-methylpiperidin-4-yloxy)methyl]-1H-benzimidazole]
< 30	CN1CCC(COC(c2cccc(Br)c2)c2nc3ccccc3s2)C1 (single isomer, unassigned) [Example 464]
< 30	Cc1ccc(C(OC2CCN(C)CC2)c2nc3ccccc3[nH]2)c(F)c1 (single isomer, unassigned) [Example 533, 2-[(2-fluoro-4-methylphenyl)(1-methylpiperidin-4-yloxy)methyl]-1H-benzimidazole]
< 30	Cc1cc(F)c(C(OC2CCN(C)CC2)c2nc3ccccc3[nH]2)c(F)c1 (single isomer, unassigned) [Example 559, 2-[(2,6-difluoro-4-methylphenyl)(1-methylpiperidin-4-yloxy)methyl]-1H-benzimidazole]
< 30	CN1CCC(OC(c2cccc(Br)c2)c2nc3cc(F)ccc3[nH]2)CC1 (single isomer, unassigned) [Example 568, 2-[(3-bromophenyl)(1-methylpiperidin-4-yloxy)methyl]-5-fluoro-1H-benzimidazole]
< 30	CN1CCC(OC(c2nc3ccccc3[nH]2)c2ccccc2O)CC1 (single isomer, unassigned) [Example 627, 2-[(1H-benzimidazol-2-yl)(1-methylpiperidin-4-yloxy)methyl]phenol]
< 300	CN1CCC(OC(c2ccc3c(c2)OCO3)c2nc3ccccc3s2)CC1 (centres unmarked) [Example 20, 2-[benzo[1,3]dioxol-5-yl(1-methylpiperidin-4-yloxy)methyl]benzothiazole]

Same assay, conditions: human H4 receptor; evaluated in the GTPγ[35S] assay or in the [3H]histamine binding assay (not stated which per compound); Ki or IC50 class

Ki or IC50 activity class [nM]	Molecule
< 30	4-[benzothiazol-2-yl(3-bromo-phenyl)methoxy]-1,1-dimethylpiperidinium [Example 188]
< 30	CN1CCC(OC(c2cccc(I)c2)c2nc3ccccc3s2)CC1 (single isomer, unassigned) [Example 118, 2-[(3-iodophenyl)(1-methylpiperidin-4-yloxy)methyl]benzothiazole]

— patent US8802664B2 (Bioproject, priority 2010, dated 2014)
